Data from patent publication US20160046616A1, “NRF2 SMALL MOLECULE INHIBITORS FOR CANCER THERAPY” (THE JOHNS HOPKINS UNIVERSITY, priority 2013, published 2016).
pIC50: −log10 of the molar value.

Columns and labels:
[1] = test system: H1437 NRF2-ARE-Fluc stable cell line; test: H1437 Nrf2 assay: NRF2-ARE firefly luciferase reporter gene assay; type: cell-based; details: Homo sapiens, NCI-H1437, H1437 NRF2-ARE-Fluc stable cell line; read-out: Potency of inhibition, H1437
[2] = test system: A549 NRF2-ARE-Fluc stable cell line; test: A549 Nrf2 assay: NRF2-ARE firefly luciferase reporter gene assay; type: cell-based; details: Homo sapiens, read-out: Potency of inhibition, A549
Outline: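 A549 cells (Keap1 loss-of-function, constitutive NRF2) stably carrying ARE-driven firefly luciferase; compound treatment 18–24 h at 37 °C, 0.46% DMSO final.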

pIC50 [1] | pIC50 [2] | SMILES
< 4.60 | > 5.30 | Cc1ncoc1C(=O)N1CCc2cc(-c3nc(NC(=O)Cc4ccc5c(c4)OCO5)sc3C)ccc21 [Compound 181]
> 5.30 | > 5.30 | Cc1ccsc1C(=O)N1CCc2cc(-c3nc(NC(=O)Cc4ccc5c(c4)OCO5)sc3C)ccc21 [Compound 182]
> 5.30 | > 5.30 | Cc1noc(C)c1C(=O)N1CCc2cc(-c3nc(NC(=O)Cc4ccc5c(c4)OCO5)sc3C)ccc21 [Compound 183]
> 5.30 | > 5.30 | Cc1sc(NC(=O)Cc2ccc3c(c2)OCO3)nc1-c1ccc2c(c1)CCN2C(=O)c1cccn1C [Compound 184]
> 5.30 | > 5.30 | Cc1sc(NC(=O)Cc2ccc3c(c2)OCO3)nc1-c1ccc2c(c1)CCN2C(=O)c1ccnn1C [Compound 185]
> 5.30 | > 5.30 | Cc1sc(NC(=O)Cc2ccc3c(c2)OCO3)nc1-c1ccc2c(c1)CCN2C(=O)c1sccc1Cl [Compound 186]
> 5.30 | > 5.30 | Cc1sc(NC(=O)Cc2ccc3c(c2)OCO3)nc1-c1ccc2c(c1)CCN2C(=O)c1c(Cl)cnn1C [Compound 187]
> 5.30 | 4.60 to 5.30 | Cc1cccc(Cn2ccc(C(=O)Nc3ncc(Cc4ccc(C(F)(F)F)cc4)s3)n2)c1 [Compound 189]
4.60 to 5.30 | 4.60 to 5.30 | Cc1nccc(Cn2ccc(C(=O)Nc3ncc(Cc4ccc(C(F)(F)F)cc4)s3)n2)n1 [Compound 190]
> 5.30 | > 5.30 | Cc1cc(Cn2ccc(C(=O)Nc3ncc(Cc4ccc(C(F)(F)F)cc4)s3)n2)ccn1 [Compound 191]
< 4.60 | < 4.60 | O=C(Nc1ncc(Cc2ccc(C(F)(F)F)cc2)s1)c1ccn(Cc2ccccn2)n1 [Compound 192]
> 5.30 | > 5.30 | Cc1cc(C(=O)Nc2ncc(Cc3ccc(C(F)(F)F)cc3)s2)nn1Cc1ccccn1 [Compound 193]
4.60 to 5.30 | 4.60 to 5.30 | Cc1cc(C(=O)Nc2ncc(Cc3ccc(C(F)(F)F)cc3)s2)nn1CCN1CCOCC1 [Compound 194]
4.60 to 5.30 | > 5.30 | COc1ccc(CC(=O)Nc2nc(-c3ccc4c(c3)CCN4C(=O)C3CC3)c(C)s2)cc1 [Compound 195]
> 5.30 | > 5.30 | COc1ccc(CC(=O)Nc2nc(-c3ccc4c(c3)CCN4C(=O)c3cccnc3C)c(C)s2)cc1 [Compound 196]
> 5.30 | > 5.30 | COc1ccc(CC(=O)Nc2nc(-c3ccc4c(c3)CCN4C(=O)c3ccnn3C)c(C)s2)cc1 [Compound 197]
> 5.30 | > 5.30 | CC(=O)N1CCN(S(=O)(=O)c2ccc(NC(=O)c3ccc(CN4CCc5ccccc5C4)cc3)cc2)CC1 [Compound 198]
> 5.30 | > 5.30 | CCOC(=O)N1CCN(S(=O)(=O)c2ccc(NC(=O)c3ccc(CN4CCc5ccccc5C4)cc3)cc2)CC1 [Compound 199]
4.60 to 5.30 | 4.60 to 5.30 | CC(=O)N1CCN(Cc2ccc(C(=O)Nc3ccc(S(=O)(=O)N4CCOCC4)cc3)cc2)CC1 [Compound 201]
4.60 to 5.30 | 4.60 to 5.30 | CCOC(=O)N1CCN(Cc2ccc(C(=O)Nc3ccc([S+](=O)([O-])N4CCOCC4)cc3)cc2)CC1 [Compound 202]
> 5.30 | > 5.30 | O=C(Nc1ccc(S(=O)(=O)N2CCOCC2)cc1)c1ccc(CN2CCN(c3ccccc3)CC2)cc1 [Compound 203]
> 5.30 | > 5.30 | O=C(Nc1ccc(S(=O)(=O)N2CCOCC2)cc1)c1ccc(CN2Cc3ccccc3C2)cc1 [Compound 204]
> 5.30 | > 5.30 | O=C(Nc1ccc(S(=O)(=O)N2CCOCC2)cc1)c1ccc(CN2CCC(c3ccccc3)CC2)cc1 [Compound 205]
> 5.30 | > 5.30 | CC1Cc2ccccc2CN1Cc1ccc(C(=O)Nc2ccc([S+](=O)([O-])N3CCOCC3)cc2)cc1 (centres unmarked) [Compound 206]
4.60 to 5.30 | 4.60 to 5.30 | O=C(Nc1ccc(S(=O)(=O)N2CCOCC2)cc1)c1ccc(CN2CCCC(c3ccccc3)C2)cc1 (centres unmarked) [Compound 207]
